Results taken from article PMC10756536, “Functional expression and ligand identification of homo- and heteromeric Drosophila melanogaster CO2 receptors in the Xenopus laevis oocyte system” (PLOS ONE, 2023).

How the values were obtained:
Type in all cases: cell-based
[1] = target: T1, Gr21a/Gr63a CO2 receptor (Gr63a) (Drosophila melanogaster, UniProt Q9VPT1+Q9VZL7); assay: two-electrode voltage clamp, Xenopus oocytes, block of NaHCO3 current at […]
T1 construct: with Gr21a
T1 sequence (Q9VZL7 1-512): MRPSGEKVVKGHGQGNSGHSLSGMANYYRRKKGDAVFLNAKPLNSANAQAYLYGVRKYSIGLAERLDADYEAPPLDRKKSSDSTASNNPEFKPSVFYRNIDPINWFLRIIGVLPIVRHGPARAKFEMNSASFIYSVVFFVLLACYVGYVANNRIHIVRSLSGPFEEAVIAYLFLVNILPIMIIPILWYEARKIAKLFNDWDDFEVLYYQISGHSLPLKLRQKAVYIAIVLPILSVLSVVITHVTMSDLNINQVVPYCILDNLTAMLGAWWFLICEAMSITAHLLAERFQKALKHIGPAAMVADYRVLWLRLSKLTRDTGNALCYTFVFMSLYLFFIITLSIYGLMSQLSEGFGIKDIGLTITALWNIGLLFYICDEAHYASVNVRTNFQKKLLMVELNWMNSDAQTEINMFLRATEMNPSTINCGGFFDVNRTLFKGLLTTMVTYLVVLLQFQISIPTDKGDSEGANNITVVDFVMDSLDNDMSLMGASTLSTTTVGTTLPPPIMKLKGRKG
T1 sequence (Q9VPT1 1-447): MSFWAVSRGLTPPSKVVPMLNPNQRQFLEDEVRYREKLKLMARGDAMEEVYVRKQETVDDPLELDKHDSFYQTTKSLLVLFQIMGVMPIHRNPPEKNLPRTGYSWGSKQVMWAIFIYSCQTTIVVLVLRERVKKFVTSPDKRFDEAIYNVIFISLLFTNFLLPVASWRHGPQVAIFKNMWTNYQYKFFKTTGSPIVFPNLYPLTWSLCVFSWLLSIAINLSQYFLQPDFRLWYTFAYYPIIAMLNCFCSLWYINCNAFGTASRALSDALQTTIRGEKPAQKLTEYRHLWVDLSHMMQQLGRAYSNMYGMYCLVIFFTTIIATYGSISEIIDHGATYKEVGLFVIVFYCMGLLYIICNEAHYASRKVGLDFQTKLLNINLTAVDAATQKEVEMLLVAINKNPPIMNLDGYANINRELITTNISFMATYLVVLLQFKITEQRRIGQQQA

[2] = target: T1, Gr21a/Gr63a CO2 receptor (Gr63a); assay: two-electrode voltage clamp, Xenopus oocytes, block of […] NaHCO3 current
[3] = target: T1, Gr21a/Gr63a CO2 receptor (Gr63a); assay: two-electrode voltage clamp, Xenopus oocytes, agonist current at […]; details: read-out: % of 200 mM NHC response at 10 mM

Structure (SMILES)	two-electrode voltage clamp, Xenopus oocytes, block of NaHCO3 current at 10 mM [1]	activation at 10000 µM [3]	also measured
CCCCCCO [1-hexanol]	Gr21/Gr63 were significantly inhibited by 1-octanol, isobutyraldehyde, 1-hexanol	–	–
CCCCCCCCO [1-octanol]	Gr21/Gr63 were significantly inhibited by 1-octanol, isobutyraldehyde, 1-hexanol	–	–
CC(C)=CCCC(C)CCO (stereo not drawn) [citronellol]	–	–	IC50 [2]: 5.1 ± 0.25 mM
CC(C)C=O [isobutyraldehyde]	Gr21/Gr63 were significantly inhibited by 1-octanol, isobutyraldehyde, 1-hexanol	–	–
COC(=O)C(C)=O [methyl pyruvate]	–	29 ± 8%	–
CCCCCCN [n-hexylamine]	–	64 ± 17%	–
